This is an account of results in ChEMBL document CHEMBL5316282, “Small-Molecule Cyanamide Pan-TEAD·YAP1 Covalent Antagonists” (J Med Chem, 2023).

In general, IC50 refers to the concentration that gives 50% inhibition. As usually defined, the inhibition is the change of the read-out against control, counted positive when it falls.

The source made the active and inactive calls. The rule behind the calls is not given here.

In test [1] the target is T1, Transcriptional enhancer factor TEF-3 (Homo sapiens, UniProt Q15561). The test can be described thus: Inhibition of TEAD4 (unknown origin) transfected in human HEK293 cells co-transfected with renilla plasmid assessed as inhibition of transcriptional activity incubated for 24 hrs by dual Glo-luciferase reporter assay. The format is cell-based.
Test [2] addresses T1, Transcriptional enhancer factor TEF-3. The test can be described thus: Displacement of FAM- labeled YAP1 peptide (60 to 99 residues) from human TEAD4 (217 to 434 residues) expressed in Escherichia coli BL21 (DE3) cells incubated for 24 hrs by fluorescence polarization-based competitive binding assay. Background: In fluorescence polarisation assays a small probe gives low polarisation when free and higher when bound to something large.

For test [3], the target named is T2, Transcriptional enhancer factor TEF-1 (Homo sapiens, UniProt P28347). The test can be described thus: Displacement of FAM- labeled YAP1 peptide (60 to 99 residues) from human TEAD1 (209 to 426 residues) expressed in Escherichia coli BL21 (DE3) cells incubated for 24 hrs by fluorescence polarization-based competitive binding assay.
Test [4] relates to MDA-MB-468. Description: Inhibition of TEAD in human MDA-MB-468 cells assessed as maximal inhibition of CTGF transcriptional level at 0.01 to 100 uM incubated for 24 hrs by qRT-PCR assay relative to control. It is filed as cell-based. As to conditions: dose 0.01-100 µM.
A short description of test [5]: Inhibition of TEAD in human MDA-MB-468 cells assessed as inhibition of CTGF transcriptional level incubated for 24 hrs by qRT-PCR assay. It is filed as cell-based.
Test [6] deals with T3, Transcriptional enhancer factor TEF-4 (Homo sapiens, UniProt Q15562). The test can be described thus: Displacement of FAM- labeled YAP1 peptide (60 to 99 residues) from human TEAD2 (217 to 447 residues) expressed in Escherichia coli BL21 (DE3) cells incubated for 24 hrs by fluorescence polarization-based competitive binding assay.
Test [7] concerns the target T4, Transcriptional enhancer factor TEF-5 (Homo sapiens, UniProt Q99594). The test can be described thus: Displacement of FAM- labeled YAP1 peptide (60 to 99 residues) from human TEAD3 (210 to 427 residues) expressed in Escherichia coli BL21 (DE3) cells incubated for 24 hrs by fluorescence polarization-based competitive binding assay.
The target of test [8] is T3, Transcriptional enhancer factor TEF-4. The test can be described thus: Displacement of FAM- labeled YAP1 peptide (60 to 99 residues) from human TEAD2 (217 to 447 residues) expressed in Escherichia coli BL21 (DE3) cells assessed as maximum inhibition at 0.2 to 100 uM incubated for 24 hrs by fluorescence polarization-based competitive binding assay relative to control. The following applies: dose 0.2-100 µM.

Test [9] addresses T1, Transcriptional enhancer factor TEF-3. Description: Inhibition of TEAD4 (unknown origin) transfected in human HEK293 cells co-transfected with renilla plasmid assessed as maximum inhibition of transcriptional activity at 0.01 to 100 uM incubated for 24 hrs by dual Glo-luciferase reporter assay relative to control. It is filed as cell-based. The following applies: dose 0.01-100 µM.

For test [10], the system named is Transcriptional enhancer factor TEF-3 (Homo sapiens), Q15561 [C367S]. Description: Displacement of FAM- labeled YAP1 peptide (60 to 99 residues) from human TEAD4 (217 to 434 residues) C367S mutant expressed in Escherichia coli BL21 (DE3) cells at 0.2 to 100 uM incubated for 24 hrs by fluorescence polarization-based competitive binding assay. The following applies: dose 0.2-100 µM.

The target in test [11] is T2, Transcriptional enhancer factor TEF-1. Description: Inhibition of TEAD1 (unknown origin) transfected in human HEK293 cells co-transfected with renilla plasmid assessed as maximum inhibition of transcriptional activity at 10 uM incubated for 24 hrs by dual Glo-luciferase reporter assay relative to control. It is filed as cell-based. A general note: A reporter such as luciferase makes a cellular process visible.

Test [12] deals with T3, Transcriptional enhancer factor TEF-4. Description: Inhibition of TEAD2 (unknown origin) transfected in human HEK293 cells co-transfected with renilla plasmid assessed as maximum inhibition of transcriptional activity at 10 uM incubated for 24 hrs by dual Glo-luciferase reporter assay relative to control. It is filed as cell-based.
The target of test [13] is T1, Transcriptional enhancer factor TEF-3. The test can be described thus: Inhibition of TEAD4 (unknown origin) transfected in human HEK293 cells co-transfected with renilla plasmid assessed as maximum inhibition of transcriptional activity at 0.1 to 10 uM incubated for 24 hrs by dual Glo-luciferase reporter assay relative to control. The following applies: dose 0.1-10 µM. The format is cell-based.

Test [14] deals with T2, Transcriptional enhancer factor TEF-1. Description: Inhibition of TEAD1 (unknown origin) transfected in human HEK293 cells co-transfected with renilla plasmid assessed as inhibition of transcriptional activity incubated for 24 hrs by dual Glo-luciferase reporter assay. It is filed as cell-based.
Test [15] has as its target T3, Transcriptional enhancer factor TEF-4. The test can be described thus: Inhibition of TEAD2 (unknown origin) transfected in human HEK293 cells co-transfected with renilla plasmid assessed as maximum inhibition of transcriptional activity at 0.1 to 10 uM incubated for 24 hrs by dual Glo-luciferase reporter assay relative to control. The format is cell-based. The following applies: dose 0.1-10 µM.

The target in test [16] is T2, Transcriptional enhancer factor TEF-1. The test can be described thus: Inhibition of TEAD1 (unknown origin) transfected in human HEK293 cells co-transfected with renilla plasmid assessed as maximum inhibition of transcriptional activity at 0.1 to 10 uM incubated for 24 hrs by dual Glo-luciferase reporter assay relative to control. The format is cell-based. The following applies: dose 0.1-10 µM.

Test [17] addresses T3, Transcriptional enhancer factor TEF-4. Description: Inhibition of TEAD2 (unknown origin) transfected in human HEK293 cells co-transfected with renilla plasmid assessed as inhibition of transcriptional activity incubated for 24 hrs by dual Glo-luciferase reporter assay. It is filed as cell-based.
Test [18] has as its target YAP1-TEAD4 (Homo sapiens) (UniProt P46937+Q15561). Description: Inhibition of NanoLuc-tagged TEAD4 (unknown origin)-Halo-Tagged YAP1 (unknown origin) protein-protein interaction transfected in HEK293 cells using furimazine as substrate at 10 uM incubated for 2 to 24 hrs by NanoBRET binding assay. The format is cell-based. As to conditions: time 2-24 hrs.
Test [19] addresses T4, Transcriptional enhancer factor TEF-5. The test can be described thus: Inhibition of TEAD3 (unknown origin) transfected in human HEK293 cells co-transfected with renilla plasmid assessed as inhibition of transcriptional activity incubated for 24 hrs by dual Glo-luciferase reporter assay. The format is cell-based.
The mark [20] stands for this setting: Homo sapiens, MDA-MB-468, 24 h, read-out: IC50.

T3 sequence (Q15562 whole entry, the tested form may be a part): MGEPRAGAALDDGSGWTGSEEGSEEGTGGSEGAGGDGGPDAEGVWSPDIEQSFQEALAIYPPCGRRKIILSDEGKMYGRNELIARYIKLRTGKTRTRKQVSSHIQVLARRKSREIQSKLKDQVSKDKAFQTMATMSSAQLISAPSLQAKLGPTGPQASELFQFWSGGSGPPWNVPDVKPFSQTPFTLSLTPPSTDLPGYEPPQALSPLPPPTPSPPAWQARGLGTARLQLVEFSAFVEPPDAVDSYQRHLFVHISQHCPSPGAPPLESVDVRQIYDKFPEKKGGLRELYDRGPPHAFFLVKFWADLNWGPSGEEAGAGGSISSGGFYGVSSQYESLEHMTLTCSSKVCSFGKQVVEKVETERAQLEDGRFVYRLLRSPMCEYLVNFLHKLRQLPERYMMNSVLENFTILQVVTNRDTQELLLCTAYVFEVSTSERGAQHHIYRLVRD
T4 sequence (Q99594 whole entry, the tested form may be a part): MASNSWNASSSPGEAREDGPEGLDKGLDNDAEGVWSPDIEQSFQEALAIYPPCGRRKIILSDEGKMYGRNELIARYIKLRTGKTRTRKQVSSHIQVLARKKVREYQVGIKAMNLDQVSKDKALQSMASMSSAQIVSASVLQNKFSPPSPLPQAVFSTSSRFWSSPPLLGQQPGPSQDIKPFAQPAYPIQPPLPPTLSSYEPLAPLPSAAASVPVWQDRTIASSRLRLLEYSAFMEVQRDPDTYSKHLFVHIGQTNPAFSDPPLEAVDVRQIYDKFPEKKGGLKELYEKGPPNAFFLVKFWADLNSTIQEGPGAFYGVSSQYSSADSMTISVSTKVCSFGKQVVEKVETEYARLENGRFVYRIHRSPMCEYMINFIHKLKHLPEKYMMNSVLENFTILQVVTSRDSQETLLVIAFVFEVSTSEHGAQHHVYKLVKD
T2 sequence (P28347 whole entry, the tested form may be a part): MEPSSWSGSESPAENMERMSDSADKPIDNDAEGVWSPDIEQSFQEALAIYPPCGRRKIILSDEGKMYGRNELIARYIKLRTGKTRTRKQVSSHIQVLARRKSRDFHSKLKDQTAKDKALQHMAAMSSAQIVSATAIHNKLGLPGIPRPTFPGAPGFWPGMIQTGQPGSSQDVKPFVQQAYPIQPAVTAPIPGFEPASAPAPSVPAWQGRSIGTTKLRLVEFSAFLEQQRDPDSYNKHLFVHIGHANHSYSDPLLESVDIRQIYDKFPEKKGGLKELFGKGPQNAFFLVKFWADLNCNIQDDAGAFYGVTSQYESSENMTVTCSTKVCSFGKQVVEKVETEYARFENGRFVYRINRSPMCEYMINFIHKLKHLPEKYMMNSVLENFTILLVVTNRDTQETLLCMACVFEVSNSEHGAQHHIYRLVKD
T1 sequence (Q15561 whole entry, the tested form may be a part): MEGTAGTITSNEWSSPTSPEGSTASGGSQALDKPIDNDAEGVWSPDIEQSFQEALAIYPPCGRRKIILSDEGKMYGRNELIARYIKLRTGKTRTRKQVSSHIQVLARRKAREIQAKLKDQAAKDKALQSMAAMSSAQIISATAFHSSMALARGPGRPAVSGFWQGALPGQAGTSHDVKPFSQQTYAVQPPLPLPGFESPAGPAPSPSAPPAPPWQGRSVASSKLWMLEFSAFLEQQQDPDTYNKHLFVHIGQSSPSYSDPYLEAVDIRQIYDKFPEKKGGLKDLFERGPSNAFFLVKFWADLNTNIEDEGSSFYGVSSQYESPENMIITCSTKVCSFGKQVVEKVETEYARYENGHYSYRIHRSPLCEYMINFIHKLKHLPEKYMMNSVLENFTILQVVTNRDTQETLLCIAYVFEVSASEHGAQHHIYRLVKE
Transcriptional enhancer factor TEF-3 (Homo sapiens), Q15561 [C367S], sequence (Q15561 whole entry C367S, the tested form may be a part): as the sequence (Q15561 whole entry, the tested form may be a part) above, with C367S counted along it

`N#CN1CC2CCCC(Nc3ccc(C(F)(F)F)cc3)C2C1` (stereo not given): the IC50 result in test [1] (hek293) was “Not Active”; in test [2] (read-out: IC50) it was 20.1 µM; in test [3] (read-out: IC50), 1500 nM; in test [5] (mda-mb-468) it was “Not Active”; in test [6] it was 16100 nM; in test [7], “Not Active”. The Imax entry in test [4] was “inactive”. The Imax in test [8] came to 39%.

`N#CN1Cc2cccc(Nc3ccccc3C(F)(F)F)c2C1`: the concentration for half-maximal inhibition (IC50) was 10500 nM in test [1] (read-out: IC50); 5.4 µM in [2] (read-out: IC50); 1300 nM in test [3] (read-out: IC50); 5500 nM in test [5] (setting [20]); 2100 nM in test [6]; “Not Active” in test [7]. The Imax in test [4] came to 36.7%; in [9], 98.7%; in [8] it was 40%. Moreover, the inhibition entry in test [10] was “inactive”.

Take `COc1ccc2c(c1Nc1cccc(C(F)(F)F)c1)CN(C#N)C2`: the IC50 was 300 nM in test [1] (read-out: IC50); 0.2 µM in test [2] (read-out: IC50); 300 nM in test [3] (read-out: IC50); 300 nM in test [5] (setting [20]); 1700 nM in [6]; “Not Active” in [7]. Further, the values for the Imax in test [4], in [9] and in [8] were 45.3%, 41.3% and 42%, respectively. The inhibition entry in test [10] and in test [11] was “inactive” each time. For the same compound, the inhibition in test [12] came out at 50%.

With `N#CN1CC2CCCC(Nc3cccc(C(F)(F)F)c3)C2C1` (stereo not given), the Imax is 41.3% in test [13]; 28.2% in [15]; 28.6% in test [4]; 87.3% in test [9]; 45% in test [8]; 40% in test [16]. Besides, the IC50 in test [1] (read-out: IC50) is 400 nM; in [2] (read-out: IC50), 51.7 µM; in test [14] it was 1600 nM; in [3] (read-out: IC50), 1600 nM; in test [5] (setting [20]) it was 1100 nM; in [6] it was 27600 nM. For the same compound, the IC50 result in test [7] was “Not Active”; in test [17] it was 2200 nM; in test [19] it was 1200 nM. Also, the inhibition result in [10] and in test [18] was “inactive” each time.

For the compound `N#CN1Cc2cccc(Nc3ccc(C(F)(F)F)cc3)c2C1`, the IC50 was 2100 nM in test [1] (read-out: IC50); “Not Active” in test [2]; 200 nM in test [3] (read-out: IC50); 1500 nM in [5] (setting [20]); 800 nM in [6]; “Not Active” in [7]. The Imax in [4] is 59.6%; in test [8], 33%.

Take `N#CN1Cc2ccc(F)c(Nc3cccc(C(F)(F)F)c3)c2C1`: the IC50 was 700 nM in test [1] (read-out: IC50); 0.6 µM in [2] (read-out: IC50); 200 nM in test [3] (read-out: IC50); 300 nM in test [5] (setting [20]); 2400 nM in test [6]; “Not Active” in test [7]. The Imax in test [4] was determined as 50.3%; in test [9], 35.6%; in [8] it was 37%. For the same compound, in test [10], the inhibition entry is “inactive”. Further, the inhibition entry in test [11] and in test [12] was “Active” in each case.

Turning to `N#CN1CC2CCCC(Nc3ccccc3C(F)(F)F)C2C1` (stereo not given), the IC50 entry in test [1] (hek293) is “Not Active”; in [2], “Not Active”; in test [3], “Not Active”; in test [5] (setting [20]), 2200 nM; in test [6] it was 7500 nM; in test [7], “Not Active”. Besides, the Imax in test [4] came to 41.1%; in test [8], 20%.
